Laboratory results taken from ChEMBL document CHEMBL1201862, “PubChem BioAssay data set” (2004).
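Cultured in 96-well plates, cells were exposed to test compound for 48 hours across five concentrations. GI50 is the concentration that inhibits growth by half.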 Activity calls are given as the source filed them. Rule as the data show it: active = GI50 up to about 1.1 µM and inactive = higher.

Experiments:
Assay in all cases: NCI tumour cell line growth inhibition, 48 h
[1] = system: KM12
[2] = system: COLO 205
[3] = system: LOX IMVI
[4] = system: U-251
[5] = system: MDA-N
[6] = system: RXF 393
[7] = system: RPMI-8226
[8] = system: OVCAR-8
[9] = system: MOLT-4
[10] = system: ACHN
[11] = system: SN12C
[12] = system: A549
[13] = system: HL-60
[14] = system: 786-0
[15] = system: NCI-H460
[16] = system: SNB-75
[17] = system: NCI-H226
[18] = system: UO-31
[19] = system: NCI-H522
[20] = system: OVCAR-4
[21] = system: SW-620
[22] = system: UACC-257
[23] = system: SF-295
[24] = system: EKVX
[25] = system: SNB-19
[26] = system: IGROV-1
[27] = system: MCF7
[28] = system: MDA-MB-231
[29] = system: HCT-15
[30] = system: BT-549
[31] = system: HT-29
[32] = system: CAKI-1
[33] = system: SK-MEL-28
[34] = system: PC-3
[35] = system: MDA-MB-435
[36] = system: TK-10
[37] = system: CCRF-CEM
[38] = system: NCI-H23
[39] = system: K562
[40] = system: HOP-92
[41] = system: HOP-62
[42] = system: NCI/ADR-RES
[43] = system: DU-145
[44] = system: A498
[45] = system: SK-OV-3
[46] = system: SK-MEL-5
[47] = system: HCC 2998
[48] = system: M14
[49] = system: Hs-578T
[50] = system: SK-MEL-2
[51] = system: HCT-116
[52] = system: OVCAR-5
[53] = system: T47D
[54] = system: UACC-62
[55] = system: Malme-3M
[56] = system: OVCAR-3
[57] = system: SF-268

O=C(O)/C(O)=C\C(=O)c1ccc(Br)cc1
GI50 [1]: > 100 µM (inactive) | GI50 [2]: > 100 µM (inactive) | GI50 [3]: > 100 µM (inactive) | GI50 [4]: > 100 µM (inactive) | GI50 [5]: > 100 µM (inactive) | GI50 [6]: > 100 µM (inactive) | GI50 [7]: > 100 µM (inactive) | GI50 [8]: > 100 µM (inactive) | GI50 [9]: > 100 µM (inactive) | GI50 [10]: > 100 µM (inactive) | GI50 [11]: > 100 µM (inactive) | GI50 [12]: > 100 µM (inactive) | GI50 [13]: > 100 µM (inactive) | GI50 [14]: > 100 µM (inactive) | GI50 [15]: > 100 µM (inactive) | GI50 [16]: > 100 µM (inactive) | GI50 [17]: > 100 µM (inactive) | GI50 [18]: > 100 µM (inactive) | GI50 [19]: > 100 µM (inactive) | GI50 [20]: > 100 µM (inactive) | GI50 [21]: > 100 µM (inactive) | GI50 [22]: > 100 µM (inactive) | GI50 [23]: > 100 µM (inactive) | GI50 [24]: 2.98 µM (inactive) | GI50 [25]: > 100 µM (inactive) | GI50 [26]: > 100 µM (inactive) | GI50 [27]: > 100 µM (inactive) | GI50 [28]: > 100 µM (inactive) | GI50 [29]: > 100 µM | GI50 [30]: > 100 µM (inactive) | GI50 [31]: > 100 µM (inactive) | GI50 [32]: > 100 µM (inactive) | GI50 [33]: > 100 µM (inactive) | GI50 [34]: > 100 µM (inactive) | GI50 [35]: > 100 µM (inactive) | GI50 [36]: > 100 µM (inactive) | GI50 [37]: 68.7 µM (inactive) | GI50 [38]: > 100 µM (inactive) | GI50 [39]: > 100 µM (inactive) | GI50 [40]: > 100 µM (inactive) | GI50 [41]: > 100 µM (inactive) | GI50 [42]: > 100 µM (inactive) | GI50 [43]: > 100 µM (inactive) | GI50 [44]: > 100 µM (inactive) | GI50 [45]: > 100 µM (inactive) | GI50 [46]: > 100 µM (inactive) | GI50 [47]: > 100 µM (inactive) | GI50 [48]: > 100 µM (inactive) | GI50 [49]: > 100 µM (inactive) | GI50 [50]: > 100 µM (inactive) | GI50 [51]: > 100 µM (inactive) | GI50 [52]: > 100 µM (inactive) | GI50 [53]: > 100 µM (inactive) | GI50 [54]: > 100 µM (inactive) | GI50 [55]: > 100 µM (inactive) | GI50 [56]: > 100 µM (inactive) | GI50 [57]: > 100 µM (inactive)
